From ChEMBL document CHEMBL5104197, “Structure-Based Optimization of Coumestan Derivatives as Polyketide Synthase 13-Thioesterase(Pks13-TE) Inhibitors with Improved hERG Profiles for Mycobacterium tuberculosis Treatment” (J Med Chem, 2022)
Values after ≈ are worked out from the molar mass of the structure shown. Active and inactive are the calls of the source. The rule behind the calls is not given here.

Tests used:
[1] = system: Mycobacterium tuberculosis; assay: microbe, parasite or virus in culture; details: H37Rv, 168 h
[2] = Metabolic stability in human liver microsomes assessed as liver intrinsic clearance measured after 60 mins by LC-MS/MS analysis; type: ADME, Microsome; details: read-out: CLH
[3] = Metabolic stability in human liver microsomes assessed as half-life measured after 60 mins by LC-MS/MS analysis; type: ADME, Microsome
[4] = Metabolic stability in human liver microsomes assessed as microsomal intrinsic clearance measured after 60 mins by LC-MS/MS analysis; type: ADME, Microsome; details: read-out: CLH
[5] = system: Mycobacterium tuberculosis; assay: Binding affinity to wild type Mycobacterium tuberculosis Pks13-TE N1640 expressed in Escherichia coli BL21(DE3) pLysS assessed as change in melting temperature at 1:5 compound to protein ratio by nanoDSF thermal stability analysis
[6] = Cytotoxicity against African green monkey Vero cells; type: toxicity, cell-based, Chlorocebus sabaeus
[7] = system: Mycobacterium tuberculosis; type: functional, organism-based; details: H37Rv, dose 100.0 mg/kg, route po, time 7.0 day
[8] = system: Mycobacterium tuberculosis; assay: Binding affinity to wild type Mycobacterium tuberculosis Pks13-TE N1640 expressed in Escherichia coli BL21(DE3) pLysS assessed as change in melting temperature at 1:10 compound to protein ratio by nanoDSF thermal stability analysis
[9] = system: Mycobacterium tuberculosis; type: functional, organism-based; details: H37Rv, dose 100.0 mg/kg, route po, time 7.0 day; remark: listed apart in the source
[10] = system: Mycobacterium tuberculosis; type: functional, Vero; details: V4207, 168 h, time 7 day
[11] = Metabolic stability in human liver microsomes assessed as compound remaining measured after 60 mins by LC-MS/MS analysis; type: ADME, Microsome; details: read-out: Stability
[12] = Selectivity index, ratio of CC50 for African green monkey Vero cells to MIC90 for Mycobacterium tuberculosis H37Rv; type: toxicity; details: read-out: Selectivity Index

Row | SMILES | MIC90 [1] | further results
1 | O=c1oc2cc(O)ccc2c2oc3ccc(O)c(CNC4CCCC4)c3c12 | 0.0039 µg/mL (≈ 0.0107 µM) | –
2 | CC(C)CCN1COc2ccc3oc4c5ccc(O)cc5oc(=O)c4c3c2C1 | 0.0625 µg/mL (≈ 0.165 µM) | –
3 | O=c1oc2cc(O)ccc2c2oc3ccc(O)c(CNC4CCCCC4)c3c12 | 0.25 µg/mL (≈ 0.659 µM) | –
4 | O=c1oc2cc(O)ccc2c2oc3ccc(O)c(CN4CCC(F)(F)CC4)c3c12 | 1 µg/mL (≈ 2.49 µM) | –
5 | O=c1oc2cc(O)ccc2c2oc3ccc(O)c(CN4CCCC(F)(F)C4)c3c12 | > 64 µg/mL | –
6 | O=c1oc2cc(O)ccc2c2oc3ccc(O)c(CN4CCC5(CC4)CC5)c3c12 | 0.25 µg/mL (≈ 0.639 µM) | –
7 | CC[C@@H](CO)NCCN[C@@H](CC)CO [ETHAMBUTOL] | 1 µg/mL (≈ 4.89 µM) | –
8 | O=c1oc2cc(O)ccc2c2oc3ccc4c(c3c12)CN(C1CC1)CO4 | 0.125 µg/mL (≈ 0.358 µM) | –
9 | COC(=O)c1c(NC(=O)c2c(F)c(F)c(F)c(F)c2F)sc2c1CCCCC2 | – | MIC [1]: 1 µM (≈ 0.419 µg/mL)
10 | O=c1oc2cc(O)ccc2c2oc3ccc(O)c(CN4CCC(Br)CC4)c3c12 | 0.125 µg/mL (≈ 0.281 µM) | –
11 | COc1ccc2c(c1)oc(=O)c1c2oc2ccc(O)c(CN3CCC(F)(F)CC3)c21 | > 64 µg/mL | –
12 | CC1(C)CCN(Cc2c(O)ccc3oc4c5ccc(O)cc5oc(=O)c4c23)CC1 | 0.25 µg/mL (≈ 0.635 µM) | –
13 | O=c1oc2cc(O)ccc2c2oc3ccc(O)c(CN4CCC(F)CC4)c3c12 | 0.0625 µg/mL (≈ 0.163 µM) | CLint scaled [2]: 21 mL/min/kg; half-life [3]: 0.992 h; CLint scaled [4]: 23.5 mL/min/kg; ΔTm [5]: 8.8 °C; IC50 [6]: 4 µg/mL (≈ 10.4 µM); Activity [7]: Active; ΔTm [8]: 7.6 °C; Activity [9]: Active; MIC90 [10]: 0.125 µg/mL (≈ 0.326 µM); remaining at 1 h [11]: 47.4%
14 | O=c1oc2cc(O)ccc2c2oc3ccc(O)c(CN4CCCCC4)c3c12 | 0.0039 µg/mL (≈ 0.0107 µM) | CLint scaled [2]: 10.4 mL/min/kg; half-life [3]: 2 h; CLint scaled [4]: 11.5 mL/min/kg; ΔTm [5]: 7 °C; ΔTm [8]: 7.2 °C
15 | CC(C)CCNCc1c(O)ccc2oc3c4ccc(O)cc4oc(=O)c3c12 | 0.125 µg/mL (≈ 0.34 µM) | –
16 | O=c1oc2cc(O)ccc2c2oc3ccc(O)c(CN4CCC(F)(F)C4)c3c12 | > 64 µg/mL | –
17 | O=C(c1c(O)ccc2oc3c4ccc(O)cc4oc(=O)c3c12)N1CCCCC1 | > 64 µg/mL | –
18 | O=C1CCCCN1Cc1c(O)ccc2oc3c4ccc(O)cc4oc(=O)c3c12 | > 64 µg/mL | –
19 | COc1ccc2c(c1)oc(=O)c1c2oc2ccc(O)c(CN3CCC(Br)CC3)c21 | > 64 µg/mL | –
20 | O=c1oc2cc(O)ccc2c2oc3ccc4c(c3c12)CN(CC1CC1)CO4 | 0.0625 µg/mL (≈ 0.172 µM) | ΔTm [5]: 5.4 °C; ΔTm [8]: 5.3 °C
21 | O=c1oc2cc(O)ccc2c2oc3ccc4c(c3c12)CN(C1CCCC1)CO4 | 0.0039 µg/mL (≈ 0.0103 µM) | half-life [3]: > 2.42 h; CLint scaled [4]: < 9.6 mL/min/kg; ΔTm [5]: 8.1 °C; IC50 [6]: 0.125 µg/mL (≈ 0.331 µM); Activity [7]: Active; ΔTm [8]: 8.4 °C; Activity [9]: Active; MIC90 [10]: 0.0078 µg/mL (≈ 0.0207 µM); selectivity ratio [12]: 32; remaining at 1 h [11]: 80.9%
22 | COc1ccc2c(c1)oc(=O)c1c2oc2ccc(O)c(CN3CCC(C)(C)CC3)c21 | 8 µg/mL (≈ 19.6 µM) | –
23 | COc1ccc2c(c1)oc(=O)c1c2oc2ccc(O)c(CN3CCC(F)(F)C3)c21 | > 64 µg/mL | –
24 | NNC(=O)c1ccncc1 [ISONIAZID] | 0.04 µg/mL (≈ 0.292 µM) | –
25 | CO[C@H]1/C=C/O[C@@]2(C)Oc3c(C)c(O)c4c(O)c(c(/C=N/N5CCN(C)CC5)c(O)c4c3C2=O)NC(=O)/C(C)=C\C=C\[C@H](C)[C@H](O)[C@@H](C)[C@@H](O)[C@@H](C)[C@H](OC(C)=O)[C@@H]1C [RIFAMPIN] | 0.125 µg/mL (≈ 0.152 µM) | –
26 | O=c1oc2cc(O)ccc2c2oc3ccc(O)c(CN4CCCC(F)C4)c3c12 (stereo unspecified) | 0.25 µg/mL (≈ 0.652 µM) | –
27 | O=c1oc2cc(O)ccc2c2oc3ccc(O)c(CNCc4ccccc4)c3c12 | 1 µg/mL (≈ 2.58 µM) | –
28 | O=c1oc2cc(O)ccc2c2oc3ccc(O)c(CN4CC[C@H](F)C4)c3c12 | 0.125 µg/mL (≈ 0.338 µM) | –
29 | O=c1oc2cc(O)ccc2c2oc3ccc(O)c(CN4CC[C@@H](F)C4)c3c12 | 0.5 µg/mL (≈ 1.35 µM) | –
